From patent US12516331B2, “Monocyte-specific aptamers and uses thereof for enhancing drug delivery to cancer” (Academia Sinica, priority 2020, dated 2026) come the findings set out here.

Data set [1] deals with human monocyte cell line THP-1. The data set is described as follows: Flow cytometry binding of Cy5-labeled aptamers to human monocyte cell line THP-1. Particulars: THP-1 cells, 200 nM Cy5-aptamer, 4° C., 30 minutes (FIG. 3). As to the method: (§1) To confirm that J10 binding, but not S2 binding, was selective to human monocytes in vitro, Cy5-labeled J10 and S2 were also incubated with the human monocyte cell lines, THP-1 and U937, and human umbilical cord endothelial cells (HUVEC), which were used as a negative control. In brief, 5×10^5 of each selected cell line was pre-mixed in a bloc king buffer (20% FBS and 10% salmon sperm DNA in PBS) at 4° C. for 30 minutes. After that, the cells were reacted with 200 nM Cy5-J10 or Cy5-S2 in the blocking buffer at 4° C. for 30 minutes. Finally, the sample was subjected to flow cytometry using standard protocols known in the art.
A general note: In flow cytometry, cells or beads pass a laser one at a time.

In data set [2] the test system is mouse endothelial cell line SVEC. As to the kind of experiment: Flow cytometry binding of Cy5-labeled aptamers to endothelial cell line SVEC (negative selection). Particulars: 200 nM Cy5-aptamer, 4° C., 30 minutes, flow cytometry (FIG. 2A). As to the method: (§2) To confirm that J10, but not S2, was capable of binding selectively to monocytes in vitro, the J10 and S2 aptamers were first labeled with the fluorescent labeling reagent Cy5 ((2Z)-2-[(2E,4E)-5-[1-(5-Carboxypentyl)-3,3-dimethyl-5-sulfoindol-1-ium-2-yl]penta-2,4-dienylidene]-1-ethyl-3,3-dimethylindole-5-sulfonate) and then incubated with monocyte cells lines RAW264.7 and J774A.1. Cy5-labeled J10 and S2 were also incubated with the mouse endothelial cell line SVEC which was used as a negative selection. In brief, 5×10^5 of each selected cell line was pre-mixed in a bloc king buffer (20% FBS and 10% salmon sperm DNA in PBS) at 4° C. for 30 minutes. After that, the cells were reacted with 200 nM Cy5-J10 or Cy5-S2 in the blocking buffer at 4° C. for 30 minutes. Finally, the sample was subjected to flow cytometry using standard protocols known in the art. […] Together, the data in FIGS. 2A and 2B confirmed that J10, but not S2, was capable of binding selectively to monocytes in vitro and being carried to the injured site in vivo.

Data set [3] in a line: PCR analysis of aptamer targeting to the injured site in the mouse cardiac ischemia reperfusion (I/R) model. In kind it is in vivo. The following applies: intravenous injection, mouse cardiac I/R model (FIG. 2B). The source says: FIGS. 2A-2D include diagrams depicting the specificity of J10 aptamer to monocytes. FIG. 2A: depicts a graph showing the amount of Cy5-labeled J10 aptamer and Cy5-labeled S2 aptamer in the monocyte cells lines RAW264.7 and J774A.1 and the mouse endothelial cell line SVEC as measured by flow cytometry. Mouse endothelial cell line SVEC was used as a negative selection. The S2 aptamer had the same nucleotide composition as J10 aptamer but randomized the sequence. Two-way ANOVA with a Tukey adjustment was used to analyze the data where *P<0.05; **P<0.01; ***P<0.001 were significant. FIG. 2B: Top panel depicts images showing the accumulating amount of J10 and S2 aptamers in infarct area of the injured hearts as measured by PCR. Bottom panel depicts quantification of PCR results. Unpaired Student's t-test was used to analyze the data where *P<0.05; **P<0.01; ***P<0.001 were significant. FIG. 2C: depicts images showing in vivo targeting of in vivo targeting of S2 aptamer-QD655 (top panel) J10 aptamer-QD655 (bottom panel) to circulating CX3CR1-GFP^+ monocytes via intravital imaging. The aptamer was conjugated with quantum dots QD655. Scale bars shown represent 100 μm. FIG. 2D: depicts a graph showing ex vivo targeting of J10 aptamer against circulating monocytes examined with flow cytometry to analyse the amount of Cy5-J10 associated with CD45^+ and CD11b^+ cells isolated from peripheral blood. […]

The subject of data set [4] is human monocyte cell line U937. As to the kind of experiment: Flow cytometry binding of Cy5-labeled aptamers to human monocyte cell line U937. The following applies: U937 cells, 200 nM Cy5-aptamer, 4° C., 30 minutes (FIG. 3). As to the method: as §1
Data set [5] deals with J774A.1 (murine monocyte cell line). As to the kind of experiment: Flow cytometry binding of Cy5-labeled aptamers to monocyte cell line J774A.1. Details: species or system mouse. Particulars: J774A.1 cells, 200 nM Cy5-aptamer, 4° C., 30 minutes, flow cytometry (FIG. 2A). As to the method: as §2
In data set [6] the test system is circulating myeloid cells (CD45+ CD11b+ cells). The data set is described as follows: Ex vivo binding of Cy5-aptamer to peripheral blood cells by flow cytometry. Set-up: species or system mouse. The following applies: peripheral blood of healthy mice, 2 μM Cy5-Apt, 30 minutes at 4° C. (FIG. 2D). As to the method: To test ex vivo binding specificity and affinity, 100 μL peripheral blood from healthy mice was withdrawn via the submandibular vein, collected in EDTA-containing anticoagulant tubes (BD Vacutainer), and incubated with 2 mL ACK lysing buffer for 10 minutes to lyse the red blood cells. After that, 2% FBS in PBS was added to stop the reaction. Following centrifugation (300 g for 3 minutes at 4° C.) the supernatants were removed. One million cells were blocked by CD16/CD32 Fc blocking antibody (1:100) after incubation for 20 minutes. Then the cells were stained for CD45 (PE-Cy7; 1:100 Biolegend), CD11b (PE; 1:200 Biolegend) and 2 μM Cy5-Apt for 30 minutes at 4° C. Finally, the cells were washed by 2% FBS in PBS and subjected to flow cytometry using standard protocols known in the art.

Data set [7] relates to RAW264.7 (murine monocyte cell line). The data set is described as follows: Flow cytometry binding of Cy5-labeled aptamers to monocyte cell line RAW264.7. Details: species or system mouse. Particulars: RAW264.7 cells, 200 nM Cy5-aptamer, 4° C., 30 minutes, flow cytometry (FIG. 2A). As to the method:
as §2

“J10: monocyte-targeting DNA aptamer identified by cell-SELEX; sequence in Table 1; Cy5-labeled for flow cytometry (DNA CAATAGAGTCGTACAGGTCGACGCT; Cy5-labeled DNA aptamer, label position not given here) [Aptamer J10]”: the “binding affinity (flow cytometry)” value in data set [1] and in data set [4] was “high binding affinity” throughout. Further, the “detection of Cy5-labeled aptamer in endothelial cells” value in data set [2] is given as “no detection”. For the same substance, the “in vivo targeting to the injured site (PCR)” value in data set [3] is “confirmed in vivo targeting ability”. Also, the “percentage of Cy5-labeled monocytes” value in data set [5] and in data set [7] was “significantly higher than the percentage of Cy5-labeled S2 monocytes” in each case. Besides, the “ex vivo affinity to CD45+ CD11b+ cells” value in data set [6] is on record as “high affinity”.
